Key:
[1] = molecular target: T1, 17β-HSD3 enzyme (Homo sapiens, UniProt P37058); test: Inhibition of 17β-HSD type 3 enzyme in MCF-7 cells stably expressing 17β-HSD3 (HPLC); type: cell-based; conditions: MCF7, MCF-7 cells expressing 17β-HSD3, 2 nM androstenedione; for inhibition at 1 µM: 1 μM compound; for inhibition at 10 µM: 10 μM compound
T1 construct: expressed in transfected cells; host or cells: MCF-7 cell lines stably expressing 17β-HSD3
T1 sequence (P37058 1-310): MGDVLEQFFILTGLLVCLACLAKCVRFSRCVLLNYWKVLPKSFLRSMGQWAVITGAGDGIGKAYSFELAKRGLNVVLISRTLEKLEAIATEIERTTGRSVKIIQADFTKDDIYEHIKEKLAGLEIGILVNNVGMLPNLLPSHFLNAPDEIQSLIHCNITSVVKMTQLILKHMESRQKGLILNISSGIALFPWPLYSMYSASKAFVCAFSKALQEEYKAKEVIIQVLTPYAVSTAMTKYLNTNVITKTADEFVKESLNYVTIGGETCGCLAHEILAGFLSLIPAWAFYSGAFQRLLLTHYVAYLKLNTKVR
Procedure: The compounds were screened in respect of 17β-HSD3 enzyme activity in vitro on established MCF-7 cell lines, each stably expressing the 17β-HSD3 enzyme. The interconversion of substrate by 17β-HSD3 and the 17β-HSD3 inhibiting activity of chemical compounds in these cell lines were detected by HPLC system.
Varying amounts of the test compounds were incubated in the growth medium of the 17β-HSD3 expressing cells together tritium labeled androstenedione (2 nM). The medium samples were removed after exact incubation time and the reaction is stopped by trichloroacetic acid (TCA). The samples were analyzed by HPLC-coupled flow scintillation analysis.
Conversion: The 17β-HSD3 inhibiting activity of an individual test compound was calculated by comparing the conversion of a control sample without any test compound (referred to as “Negative Control”) to the (reduced) conversion of the test sample containing the particular compound to be tested (referred to as “Test Sample”).

[2] = molecular target: T2, recombinant human 17β-HSD1 (Homo sapiens, UniProt P14061); test: Recombinant 17β-HSD1 assay (HPLC, 3H-estrone conversion); type: biochemical; conditions: 30 nM estrone, 1 mM NADPH, 30 min RT, read-out: Inhibition of rec. 17β-HSD1; for inhibition at 0.1 µM: 100 nM compound; for inhibition at 1 µM: 0.5 h, 1 μm compound
T2 construct: made in house; host or cells: Sf9 insect cells (baculovirus, Bac to Bac Expression System)
T2 sequence (P14061 1-328): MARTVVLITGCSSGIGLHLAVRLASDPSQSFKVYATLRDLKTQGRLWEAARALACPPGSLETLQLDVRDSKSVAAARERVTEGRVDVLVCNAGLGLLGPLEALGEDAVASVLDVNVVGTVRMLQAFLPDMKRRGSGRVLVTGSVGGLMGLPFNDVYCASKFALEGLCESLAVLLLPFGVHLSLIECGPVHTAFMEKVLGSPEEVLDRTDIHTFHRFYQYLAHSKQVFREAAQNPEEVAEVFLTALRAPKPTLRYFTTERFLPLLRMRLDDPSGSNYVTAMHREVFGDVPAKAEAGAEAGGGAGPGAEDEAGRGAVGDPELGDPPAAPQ
Procedure: 17β-HSD1 or 17β-HSD2 purification: Recombinant 17β-HSD1 and 17β-HSD2 baculoviruses were generated by the “Bac to Bac Expression System” (Invitrogen). Recombinant 17β-HSD1 or 17β-HSD2 bacmids were transfected to Sf9 insect cells using “Cellfectin Reagent” (Invitrogen). 60 h later cells were harvested; the fractions including 17β-HSD1 or 17β-HSD2 were isolated as described by Puranen et al. (1994). Aliquots were stored frozen until determination of enzymatic activity.
Recombinant 17β-HSD1 assay: Recombinant protein homogenate (0.1 μg/ml) was incubated in 20 mM KH2PO4 pH 7.4 reaction buffer, including protease inhibitors (Complete Protease Inhibitor Cocktail tablet, Roche Diagnostics, 1697498), with 30 nM estrone (Sigma, E9750) as substrate, 800 000 cpm/ml ^3H-estrone (PerkinElmer, NET319001MC) as a tracer substrate, and 1 mM NADPH (Sigma, N1630) as a co-factor for 30 min at RT, in the presence of potential inhibitors at concentrations of 1 μM or 0.1 μM. Inhibitor stock solutions were prepared in DMSO. The enzyme reaction was stopped by addition of trichloroacetic acid (1% final concentration). Samples were centrifuged in a microtiter plate at 4000 rpm for 10 min. Supernatants were applied to reverse phase HPLC on a Waters Symmetry C18 column, equipped with a Waters Sentry Guard column. Isocratic HPLC runs were performed at RT at a flow rate of 1 ml/min of acetonitrile:water 48:52 as running solvent. Radioactivity was monitored in the eluate by a Packard Flow Scintillation Analyzer. Total radioactivity for estrone and estradiol were determined in each sample and percent inhibition of estradiol conversion by the respective inhibitor was calculated
For the calculation of % inhibition the following formula was used:
[formula] Percent inhibition was calculated as follows: % inhibition=100−% conversion

[3] = molecular target: T3, recombinant human 17β-HSD2 (Homo sapiens, UniProt P37059); test: Recombinant 17β-HSD2 assay (HPLC, 3H-estradiol conversion); type: biochemical; conditions: 50 nM estradiol, 1 mM β-NAD, read-out: Inhibition of rec. 17β-HSD2; for inhibition at 0.1 µM: 100 nM compound; for inhibition at 1 µM: 1 μm compound
T3 construct: made in house; host or cells: Sf9 insect cells (baculovirus, Bac to Bac Expression System)
T3 sequence (P37059 1-387): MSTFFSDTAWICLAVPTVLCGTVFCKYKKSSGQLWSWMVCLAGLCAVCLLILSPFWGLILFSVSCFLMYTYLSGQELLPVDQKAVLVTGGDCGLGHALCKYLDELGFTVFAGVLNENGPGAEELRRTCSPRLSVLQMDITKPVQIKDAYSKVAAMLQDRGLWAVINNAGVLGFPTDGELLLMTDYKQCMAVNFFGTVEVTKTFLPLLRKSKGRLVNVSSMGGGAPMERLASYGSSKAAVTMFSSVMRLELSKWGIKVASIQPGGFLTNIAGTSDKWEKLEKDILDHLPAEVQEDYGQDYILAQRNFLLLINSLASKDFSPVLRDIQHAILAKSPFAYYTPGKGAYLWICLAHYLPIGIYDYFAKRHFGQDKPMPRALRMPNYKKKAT
Procedure: 17β-HSD1 or 17β-HSD2 purification: Recombinant 17β-HSD1 and 17β-HSD2 baculoviruses were generated by the “Bac to Bac Expression System” (Invitrogen). Recombinant 17β-HSD1 or 17β-HSD2 bacmids were transfected to Sf9 insect cells using “Cellfectin Reagent” (Invitrogen). 60 h later cells were harvested; the fractions including 17β-HSD1 or 17β-HSD2 were isolated as described by Puranen et al. (1994). Aliquots were stored frozen until determination of enzymatic activity. Recombinant 17β-HSD2 assay: Recombinant 17β-HSD2 assay was performed as described for 17β-HSD1 but with following modifications: 6 μg/ml of recombinant protein homogenate, 50 nM Estradiol (Sigma, E8875) as a substrate, 800 000 cpm/ml ^3H-estradiol (PerkinElmer, NET317) as a tracer substrate and 1 mM β-NAD (Sigma N7004) as a co-factor were used. Total radioactivity for estrone and estradiol were determined in each sample and percent inhibition of estrone conversion by the respective inhibitor was calculated. For the calculation of % inhibition the following formula was used: [formula] Percent inhibition was calculated as follows: % inhibition=100−% conversion

SMILES	inhibition at 1 µM [1] [%]	inhibition at 10 µM [1] [%]	inhibition at 0.1 µM [2] [%]	inhibition at 1 µM [2] [%]	inhibition at 0.1 µM [3] [%]	inhibition at 1 µM [3] [%]
Cc1cnc(NC(=O)CC[C@@H]2CC(F)(F)[C@@]3(C)CC[C@@H]4c5ccc(C(N)=O)cc5CC[C@H]4[C@H]23)s1 [Compound 8, 17,17-difluoro-15beta-{3-[(5-methyl-1,3-thiazol-2-yl)amino]-3-oxopropyl}estra-1(10),2,4-triene-3-carboxamide]	4	46				
C[C@]12CC[C@@H]3c4ccc(B(O)O)cc4CC[C@H]3[C@@H]1[C@@H](CCCC(=O)Nc1ccc3c(c1)OCO3)CC2=O [Compound 13, [15alpha-[4-(1,3-benzodioxol-5-ylamino)-4-oxobutyl]-17-oxoestra-1(10),2,4-trien-3-yl]boronic acid]	18	22	27	52	-7.6	2
C[C@]12CC[C@@H]3c4ccc(B(O)O)cc4CC[C@H]3[C@@H]1[C@@H](CCCC(=O)NC1CCCCC1)CC2=O [Compound 17, [15alpha-[4-(cyclohexylamino)-4-oxobutyl]-17-oxoestra-1(10),2,4-trien-3-yl]boronic acid]	6	45	24	31	-5.4	1.8
C[C@]12CC[C@@H]3c4ccc(B(O)O)cc4CC[C@H]3[C@@H]1[C@@H](CCCC(=O)N1CCCCC1)CC2=O [Compound 20, [17-oxo-15alpha-(4-oxo-4-piperidin-1-ylbutyl)estra-1(10),2,4-trien-3-yl]boronic acid]	15	57				
C[C@]12CC[C@@H]3c4ccc(B(O)O)cc4CC[C@H]3[C@@H]1[C@@H](CCCC(=O)NC1CCCCC1)CC2(F)F [Compound 48, [15alpha-[4-(cyclohexylamino)-4-oxobutyl]-17,17-difluoroestra-1(10),2,4-trien-3-yl]boronic acid]	13	63	25	50	6.4	12.8
CCN(CC)C(=O)CCC[C@H]1CC(F)(F)[C@@]2(C)CC[C@@H]3c4ccc(B(O)O)cc4CC[C@H]3[C@H]12 [Compound 49, [15alpha-[4-(diethylamino)-4-oxobutyl]-17,17-difluoroestra-1(10),2,4-trien-3-yl]boronic acid]	62	89	29	50	7.7	11.6
C[C@]12CC[C@@H]3c4ccc(B(O)O)cc4CC[C@H]3[C@@H]1[C@@H](CCCC(=O)NCc1cccnc1)CC2(F)F [Compound 53, [17,17-difluoro-15alpha-{4-oxo-4-[(pyridin-3-ylmethyl)amino]butyl}estra-1(10),2,4-trien-3-yl]boronic acid]	4	50	19	50	5	8.6
C[C@]12CC[C@@H]3c4ccc(B(O)O)cc4CC[C@H]3[C@@H]1[C@@H](CCCC(=O)N1CCCCC1)CC2(F)F [Compound 57, [17,17-difluoro-15alpha-(4-oxo-4-piperidin-1-ylbutyl)estra-1(10),2,4-trien-3-yl]boronic acid]	28	78				
C[C@]12CC[C@@H]3c4ccc(B(O)O)cc4CC[C@H]3[C@@H]1[C@H](CCC(=O)NCc1ccc3c(c1)OCO3)CC2(F)F [Compound 60, [15beta-{3-[(1,3-benzodioxol-5-ylmethyl)amino]-3-oxopropyl}-17,17-difluoroestra-1(10),2,4-trien-3-yl]boronic acid]	28	67	46	71	9.5	12.5
C[C@]12CC[C@@H]3c4ccc(B(O)O)cc4CC[C@H]3[C@@H]1[C@H](CCC(=O)NCc1ccccc1)CC2(F)F [Compound 63, [15beta-[3-(benzylamino)-3-oxopropyl]-17,17-difluoroestra-1(10),2,4-trien-3-yl]boronic acid]	41	88	51	66	12.8	16.9
Cc1cccc2c(CCNC(=O)CC[C@@H]3CC(F)(F)[C@@]4(C)CC[C@@H]5c6ccc(B(O)O)cc6CC[C@H]5[C@H]34)c[nH]c12 [Compound 67, [17,17-difluoro-15beta-(3-{[2-(7-methyl-1H-indol-3-yl)ethyl]amino}-3-oxopropyl)estra-1(10),2,4-trien-3-yl]boronic acid]	40	84	47	66	10	15.8
C[C@]12CC[C@@H]3c4ccc(NCc5ccccc5)cc4CC[C@H]3[C@@H]1[C@@H](CCCC(=O)N1CCOCC1)CC2=O [Compound 98, 3-(benzylamino)-15alpha-(4-morpholin-4-yl-4-oxobutyl)estra-1(10),2,4-trien-17-one]	15	48				

Source: patent US8288367B2, “Substituted estratriene derivatives as 17BETA HSD inhibitors” (Solvay Pharmaceuticals GmBH, priority 2006, dated 2012)
